Target: Cytomegalovirus protease/assemblin (Human cytomegalovirus)
Experiment: Potency against human cytomegalovirus protease in HCMV pNA assay

Row | Ki [nM] | SMILES
1 | 41 | CC(C)c1ccc(NC(=O)N2CCC[C@H]2C(=O)N2CC[C@H]3[C@H]2[C@H](C)C(=O)N3c2nc3c(Cl)cccc3s2)cc1 [(S)-2-[(3aS,6S,6aR)-4-(4-Chloro-benzothiazol-2-yl)-6-methyl-5-oxo-hexahydro-pyrrolo[3,2-b]pyrrole-1-carbonyl]-pyrrolidine-1-carboxylic acid (4-isopropyl-phenyl)-amide]
2 | 10 | CC(C)c1ccc(NC(=O)N2CCC[C@H]2C(=O)N2CC[C@H]3[C@H]2[C@H](C)C(=O)N3c2nc3cc(S(=O)(=O)C(F)F)ccc3s2)cc1 [(S)-2-{(3aS,6S,6aR)-4-[5-(Difluoro-methanesulfonyl)-benzothiazol-2-yl]-6-methyl-5-oxo-hexahydro-pyrrolo[3,2-b]pyrrole-1-carbonyl}-pyrrolidine-1-carboxylic acid (4-isopropyl-phenyl)-amide]
3 | 17 | CC(C)c1ccc(NC(=O)N2CCC[C@H]2C(=O)N2CC[C@H]3[C@H]2[C@H](C)C(=O)N3c2nc3ccc(F)cc3s2)cc1 [(S)-2-[(3aS,6S,6aR)-4-(6-Fluoro-benzothiazol-2-yl)-6-methyl-5-oxo-hexahydro-pyrrolo[3,2-b]pyrrole-1-carbonyl]-pyrrolidine-1-carboxylic acid (4-isopropyl-phenyl)-amide]
4 | 22 | COc1ccc2sc(N3C(=O)[C@@H](C)[C@@H]4[C@@H]3CCN4C(=O)[C@@H]3CCCN3C(=O)Nc3ccc(C(C)C)cc3)nc2c1 [(S)-2-[(3aS,6S,6aR)-4-(5-Methoxy-benzothiazol-2-yl)-6-methyl-5-oxo-hexahydro-pyrrolo[3,2-b]pyrrole-1-carbonyl]-pyrrolidine-1-carboxylic acid (4-isopropyl-phenyl)-amide]

Reference: BindingDB's records for doi:10.1021/jm030810w (Glaxosmithkline, 2003)
